Measured values: the supplement of paper PMC10307832

Assays:
Assay in all cases: relative viability (nuclei count vs DMSO), 5 days (fraction); higher = more cells survive
Vismodegib + Tozasertib = compound: CS(=O)(=O)c1ccc(C(=O)Nc2ccc(Cl)c(-c3ccccn3)c2)c(Cl)c1 [Vismodegib] + Cc1cc(Nc2cc(N3CCN(C)CC3)nc(Sc3ccc(NC(=O)C4CC4)cc3)n2)n[nH]1 [Tozasertib] (partner 0.1 µM)
Outline: (§1)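 Lung cancer cell lines were pin-tool dosed in 1536-well plates on the day after seeding, with either a lone drug or a fixed anchor-drug dose plus five library-drug doses (not always all listed) in √10 steps. Nuclei were counted on 4× images after 5 days. Relative viability is the ratio of treated-well to vehicle-well nuclei counts, with each value a median of duplicate plates.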

VE-821 + OSI-027 = compound: CS(=O)(=O)c1ccc(-c2cnc(N)c(C(=O)Nc3ccccc3)n2)cc1 [VE-821] + COc1cccc2cc(-c3nc([C@H]4CC[C@H](C(=O)O)CC4)n4ncnc(N)c34)[nH]c12 [OSI-027] (partner 0.5 µM)
Outline: as §1

Ruxolitinib + Crizotinib = compound: N#CC[C@H](C1CCCC1)n1cc(-c2ncnc3[nH]ccc23)cn1 [Ruxolitinib] + C[C@@H](Oc1cc(-c2cnn(C3CCNCC3)c2)cnc1N)c1c(Cl)ccc(F)c1Cl [Crizotinib] (partner 1 µM)
Outline: as §1

Ruxolitinib + Vorinostat = compound: N#CC[C@H](C1CCCC1)n1cc(-c2ncnc3[nH]ccc23)cn1 [Ruxolitinib] + O=C(CCCCCCC(=O)Nc1ccccc1)NO [Vorinostat] (partner 1 µM)
Outline: as §1

| Cell Line | relative viability (Vismodegib + Tozasertib; first compound 0.08 µM) | relative viability (Vismodegib + Tozasertib; first compound 0.253 µM) | relative viability (Vismodegib + Tozasertib; first compound 0.8 µM) | relative viability (Vismodegib + Tozasertib; first compound 2.53 µM) | relative viability (Vismodegib + Tozasertib; first compound 8 µM) | relative viability (VE-821 + OSI-027; first compound 0.08 µM) | relative viability (VE-821 + OSI-027; first compound 0.253 µM) | relative viability (VE-821 + OSI-027; first compound 0.8 µM) | relative viability (VE-821 + OSI-027; first compound 2.53 µM) | relative viability (VE-821 + OSI-027; first compound 8 µM) | relative viability (Ruxolitinib + Crizotinib; first compound 0.253 µM) | relative viability (Ruxolitinib + Crizotinib; first compound 0.8 µM) | relative viability (Ruxolitinib + Crizotinib; first compound 2.53 µM) | relative viability (Ruxolitinib + Crizotinib; first compound 8 µM) | relative viability (Ruxolitinib + Vorinostat; first compound 0.08 µM) | relative viability (Ruxolitinib + Vorinostat; first compound 0.253 µM) | relative viability (Ruxolitinib + Vorinostat; first compound 0.8 µM) | relative viability (Ruxolitinib + Vorinostat; first compound 2.53 µM) | relative viability (Ruxolitinib + Vorinostat; first compound 8 µM) | relative viability (Ruxolitinib + Crizotinib; first compound 0.08 µM) |
| --- | --- | --- | --- | --- | --- | --- | --- | --- | --- | --- | --- | --- | --- | --- | --- | --- | --- | --- | --- | --- |
| NCI-H650 | 0.725 | 0.778 | 0.705 | 0.743 | 0.718 | 0.499 | 0.473 | 0.57 | 0.455 | 0.532 | 0.77 | 0.846 | 0.644 | 0.54 | 0.532 | 0.423 | 0.406 | 0.44 | 0.429 | – |
| EKVX | 0.392 | 0.358 | 0.409 | 0.414 | 0.373 | 0.696 | 0.675 | 0.676 | 0.745 | 0.605 | 0.983 | 1.07 | 0.757 | 0.798 | 0.57 | 0.744 | 0.719 | 0.628 | 0.588 | 0.894 |
| NCI-H2009 | 0.727 | 0.674 | 0.834 | 0.817 | 0.733 | 0.693 | 0.557 | 0.598 | 0.618 | 0.318 | 0.996 | 1.12 | 0.769 | 0.832 | 0.715 | 0.71 | 0.722 | 0.631 | 0.507 | 1.1 |
| NCI-H23 | 0.362 | 0.425 | 0.386 | 0.297 | 0.301 | 0.486 | 0.531 | 0.483 | 0.624 | 0.331 | 0.527 | 0.71 | 0.43 | 0.488 | 0.668 | 0.628 | 0.763 | 0.642 | 0.43 | 0.457 |
| LU99A | 0.301 | 0.248 | 0.239 | 0.268 | 0.269 | 0.298 | 0.304 | 0.292 | 0.257 | 0.244 | 0.655 | 0.532 | 0.612 | 0.519 | 0.537 | 0.482 | 0.542 | 0.416 | 0.426 | 0.588 |
| NCI-H1915 | 0.431 | 0.386 | 0.466 | 0.413 | 0.414 | 0.701 | 0.593 | 0.618 | 0.684 | 0.534 | 0.925 | 1.01 | 0.835 | 0.864 | 0.467 | 0.488 | 0.565 | 0.461 | 0.332 | 0.903 |
| EMC-BAC-2 | 0.281 | 0.284 | 0.288 | 0.292 | 0.316 | 0.398 | 0.319 | 0.372 | 0.388 | 0.346 | 0.782 | 0.85 | 0.68 | 0.445 | 0.412 | 0.432 | 0.443 | 0.621 | 0.279 | 0.801 |
| 201T | 0.914 | 0.919 | 0.987 | 0.946 | 0.966 | 0.815 | 0.672 | 0.688 | 0.747 | 0.381 | 1.11 | 1.19 | 1.29 | 1.18 | 1.12 | 1.16 | 1.21 | 1.25 | 1.17 | 1.02 |
